Target: T1, truncated form of PTP1B (corresponding to the first 321 amino acids) (Homo sapiens, UniProt P18031)
T1 construct: truncated form of PTP1B (corresponding to the first 321 amino acids); made in house; host or cells: E. coli
T1 sequence (P18031 1-321): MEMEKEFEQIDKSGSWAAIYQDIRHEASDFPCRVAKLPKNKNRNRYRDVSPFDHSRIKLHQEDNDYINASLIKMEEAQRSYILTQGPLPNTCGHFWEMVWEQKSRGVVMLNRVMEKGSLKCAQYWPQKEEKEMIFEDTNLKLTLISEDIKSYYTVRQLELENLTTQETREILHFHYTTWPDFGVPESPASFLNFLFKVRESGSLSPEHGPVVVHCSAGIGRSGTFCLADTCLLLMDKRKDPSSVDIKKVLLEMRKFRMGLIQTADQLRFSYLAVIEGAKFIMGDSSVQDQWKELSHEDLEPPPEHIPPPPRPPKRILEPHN
Test: Inhibition of classical PTP1B, p-nitrophenyl phosphate enzyme assay
Type: biochemical
Settings: substrate p-nitrophenyl phosphate 0.16 to 10 mM; 100 mM sodium acetate pH 5.5; 25° C., 60 minutes; absorbance at 405 nm; read-out: PTP1B K1 values
Description: These compounds were evaluated for biological activity with a truncated form of PTP1B (corresponding to the first 321 amino acids), which was expressed in E. coli and purified to apparent homogeneity using published procedures well-known to those skilled in the art. The enzyme reactions were carried out using standard conditions essentially as described by Burke et al. (Biochemistry 35; 15989-15996 (1996)). The assay conditions were as follows. Appropriate concentrations of the compounds of the invention were added to the reaction mixtures containing different concentrations of the substrate, p-nitrophenyl phosphate (range: 0.16 to 10 mM--final assay concentration). The buffer used was 100 mM sodium acetate pH 5.5, 50 mM sodium chloride, 0.1% (w/v) bovine serum albumin and 5 mM dithiothreitol (total volume […]). The reaction was started by addition of the enzyme and carried out in microliter plates at 25° C. for 60 minutes. The reactions were stopped by addition of NaOH. The enzyme activity was determined by measurement of the absorbance at 405 nm with appropriate corrections for absorbance at 405 nm of the compounds and p-nitrophenyl phosphate. The data were analyzed using nonlinear regression fit to classical Michaelis Menten enzyme kinetic models. Inhibition is expressed as Ki values in μM.

CCSc1nn(-c2ccc(OC)cc2)c(=O)c2c(N)scc12 [Example 2, 7-Amino-4-ethylsulfanyl-2-(4-methoxy-phenyl)thieno[3,4-d]pyridazin-1(2H)-one]
Ki: 2 µM

Nc1scc2c1c(=O)oc1ccc3ccccc3c12 [Example 3, 3-Amino4H-naphtho[2,1-b]thieno[3,4-d]pyran-4-one]
Ki: 4 µM

From patent US6169087A, “Modulators of protein tyrosine phosphatases (PTPases)” (Novo Nordisk A/S, priority 1998, dated 2001)
